Laboratory results: US12630785B2, “Liquid fabric care compositions comprising capsules” (The Procter & Gamble Company, priority 2020, dated 2026)

How the values were obtained:
[1] = Capsule perfume leakage in heavy-duty liquid (HDL) detergent, headspace SPME GC/MS; assay type: physicochemical
Procedure: The testing of capsule leakage in liquid compositions (e.g., liquid fabric enhancer/“LFE” compositions and/or heavy-duty liquid/“HDL” detergents) is performed as follows. […] The 1 gram aliquot in the 7 ml vial is then mixed on a stirring plate for 24 h at 500 rpm, thereby ensuring that the capsules are broken by the grinding action of the stir bar against the bottom of the 7 ml vial. Optical microscopy can be used to verify that no more intact capsules remain. In case such capsules are found, the step is to repeated for an additional 24 h, or until all or almost all capsules are broken. Then, the formulation containing broken capsules is introduced into GC vials in a similar manner as for step (a). This yields total oil samples. It is to be noted that the capsule sample and the total oil sample are not analyzed on the same day, as there is a need to prepare the total oil sample after the capsule sample has been removed from storage. […] The perfume oil composition formulated herein is representative of the perfume oil composition that is present in the slurry. Then the free oil formulation is introduced into GC vials in a similar manner as for step (a). This yields reference samples, which must be used when analyzing both the capsule sample and the total oil sample. […] Two headspace vials are prepared for each sample. The sealed headspace vials are then allowed to equilibrate. […] After equilibrating, the samples are analyzed by GC/MS. […] The perfume composition is analyzed by fast GC/MS in full scan mode. Ion extraction of the specific mass for each component is obtained. The leakage is calculated as follows, separately for the capsule sample and total oil sample, where “Area” denotes the area under the chromatogram peak corresponding to the PRM of interest: Once calculated for all PRMs for both the total oil sample and the capsule sample, the corrected PRM leakage can be calculated using the following formula: Once the corrected PRM leakage has been calculated for all PRMs, the Average leakage can be found by taking the arithmetic mean of each corrected PRM leakage. […] The resulting products are stored for one week at 35° C. At the end of the storage period, samples of each product composition are analyzed for perfume leakage out of the capsule using headspace analysis. The data is reported as a percentage, determined by comparing the amount of the individual perfume raw materials found in the headspace to the amount originally provided to the capsules.

[2] = Capsule perfume leakage in liquid fabric enhancer (LFE), headspace SPME GC/MS; assay type: physicochemical
Procedure: The testing of capsule leakage in liquid compositions (e.g., liquid fabric enhancer/“LFE” compositions and/or heavy-duty liquid/“HDL” detergents) is performed as follows. […] The 1 gram aliquot in the 7 ml vial is then mixed on a stirring plate for 24 h at 500 rpm, thereby ensuring that the capsules are broken by the grinding action of the stir bar against the bottom of the 7 ml vial. Optical microscopy can be used to verify that no more intact capsules remain. In case such capsules are found, the step is to repeated for an additional 24 h, or until all or almost all capsules are broken. Then, the formulation containing broken capsules is introduced into GC vials in a similar manner as for step (a). This yields total oil samples. It is to be noted that the capsule sample and the total oil sample are not analyzed on the same day, as there is a need to prepare the total oil sample after the capsule sample has been removed from storage. […] The perfume oil composition formulated herein is representative of the perfume oil composition that is present in the slurry. Then the free oil formulation is introduced into GC vials in a similar manner as for step (a). This yields reference samples, which must be used when analyzing both the capsule sample and the total oil sample. […] Two headspace vials are prepared for each sample. The sealed headspace vials are then allowed to equilibrate. Samples reach equilibrium after 3 hours at room temperature, but can be left to sit longer without detriment or change to the results, up until 24 hours after sealing the headspace vial. After equilibrating, the samples are analyzed by GC/MS. […] The perfume composition is analyzed by fast GC/MS in full scan mode. Ion extraction of the specific mass for each component is obtained. The leakage is calculated as follows, separately for the capsule sample and total oil sample, where “Area” denotes the area under the chromatogram peak corresponding to the PRM of interest: Once calculated for all PRMs for both the total oil sample and the capsule sample, the corrected PRM leakage can be calculated using the following formula: Once the corrected PRM leakage has been calculated for all PRMs, the Average leakage can be found by taking the arithmetic mean of each corrected PRM leakage. […] The resulting products are stored for one week at 35° C. At the end of the storage period, samples of each product composition are analyzed for perfume leakage out of the capsule using headspace analysis. The data is reported as a percentage, determined by comparing the amount of the individual perfume raw materials found in the headspace to the amount originally provided to the capsules.

[3] = PRM of Perfume 1 out of Comparative Example 5-1 capsules (polyacrylate shell)
[4] = PRM of Perfume 1 out of Comparative example 5-2 capsules (per EP2500087B1)
[5] = PRM of Perfume 1 out of Comparative example 5-3 capsules (per WO2010013250A2)
[6] = PRM of Perfume 1 out of Example 5-1 capsules (silica shell)
[7] = PRM of Perfume 1 out of Comparative Example 4-1 capsules (polyacrylate shell), LFE Composition 1, 0.25 wt % perfume
[8] = PRM of Perfume 1 out of Comparative Example 6-1 capsules (no second shell component), LFE Composition 1
[9] = PRM of Perfume 1 out of Comparative Example 10-1 capsules (per EP2500087B1), LFE Composition 1
[10] = PRM of Perfume 1 out of Comparative Example 10-2 capsules (per WO2010013250A2, with IPM), LFE Composition 1
[11] = PRM of Perfume 1 out of Example 2, Sample A capsules, LFE Composition 1 (Ester Quat 1)
[12] = PRM of Perfume 1 out of Example 2, Sample A capsules, LFE Composition 2 (Ester Quat 2)
[13] = PRM of Perfume 1 out of Example 2, Sample A capsules, LFE Composition 3 (Ester Quat 3)
[14] = PRM of Perfume 1 out of Example 4-1 capsules (silica shell), LFE Composition 1, 0.25 wt % perfume
[15] = PRM of Perfume 1 out of Example 6-1 capsules (w/ second shell component), LFE Composition 1
[16] = PRM of Perfume 1 out of Example 10-1 capsules (Sample F, Perfume 1/IPM 40/60), LFE Composition 1
[17] = PRM of Perfume 1 out of Example 10-2 capsules (Sample A), LFE Composition 1
[18] = PRM of Perfume 2 out of Capsule Sample C, LFE Composition 1
[19] = PRM of Perfume 3 out of Capsule Sample D, LFE Composition 1
[20] = PRM of Perfume 4 out of Comparative Example 9-1 capsules (per EP3078415A), LFE Composition 1
[21] = PRM of Perfume 4 out of Comparative Example 9-2 capsules (per EP3078415A, additional TEOS), LFE Composition 1
[22] = PRM of Perfume 4 out of Example 9-1 capsules (Sample E), LFE Composition 1

Row | SMILES | Leakage (as %) after 1 week at 35° C. [1, 3] [%] | Leakage (as %) after 1 week at 35° C. [1, 4] [%] | Leakage (as %) after 1 week at 35° C. [1, 5] [%] | Leakage (as %) after 1 week at 35° C. [1, 6] [%] | Leakage (as %) after 1 week at 35° C. [2, 7] [%] | Leakage (as %) after 1 week at 35° C. [2, 8] [%] | Leakage (as %) after 1 week at 35° C. [2, 9] [%] | Leakage (as %) after 1 week at 35° C. [2, 10] [%] | Leakage (as %) after 1 week at 35° C. [2, 11] [%] | Leakage (as %) after 1 week at 35° C. [2, 12] [%] | Leakage (as %) after 1 week at 35° C. [2, 13] [%] | Leakage (as %) after 1 week at 35° C. [2, 14] [%] | Leakage (as %) after 1 week at 35° C. [2, 15] [%] | Leakage (as %) after 1 week at 35° C. [2, 16] [%] | Leakage (as %) after 1 week at 35° C. [2, 17] [%] | Leakage (as %) after 1 week at 35° C. [2, 18] [%] | Leakage (as %) after 1 week at 35° C. [2, 19] [%] | Leakage (as %) after 1 week at 35° C. [2, 20] [%] | Leakage (as %) after 1 week at 35° C. [2, 21] [%] | Leakage (as %) after 1 week at 35° C. [2, 22] [%]
1 | CCOC(=O)C(C)CC (stereo not drawn) [Ethyl 2-methyl butyrate] | 75 | 103 | 99 | 38 | 61 | 101 | 100 | 100 | 1.3 | 1.0 | 2.2 | 4 | 6 | 28 | 6 | 21 | 14 | – | – | –
2 | CC12CCC(CC1)C(C)(C)O2 [Eucalyptol] | 1 | 104 | 101 | 28 | 5 | 72 | 97 | 96 | 2.1 | 1.3 | 2.0 | 7 | 8 | 26 | 8 | – | – | – | – | –

More lines, now with the values ahead:

Row | Leakage (as %) after 1 week at 35° C. [1, 3] [%] | Leakage (as %) after 1 week at 35° C. [1, 4] [%] | Leakage (as %) after 1 week at 35° C. [1, 5] [%] | Leakage (as %) after 1 week at 35° C. [1, 6] [%] | Leakage (as %) after 1 week at 35° C. [2, 7] [%] | Leakage (as %) after 1 week at 35° C. [2, 8] [%] | Leakage (as %) after 1 week at 35° C. [2, 9] [%] | Leakage (as %) after 1 week at 35° C. [2, 10] [%] | Leakage (as %) after 1 week at 35° C. [2, 11] [%] | Leakage (as %) after 1 week at 35° C. [2, 12] [%] | Leakage (as %) after 1 week at 35° C. [2, 13] [%] | Leakage (as %) after 1 week at 35° C. [2, 14] [%] | Leakage (as %) after 1 week at 35° C. [2, 15] [%] | Leakage (as %) after 1 week at 35° C. [2, 16] [%] | Leakage (as %) after 1 week at 35° C. [2, 17] [%] | Leakage (as %) after 1 week at 35° C. [2, 18] [%] | Leakage (as %) after 1 week at 35° C. [2, 19] [%] | Leakage (as %) after 1 week at 35° C. [2, 20] [%] | Leakage (as %) after 1 week at 35° C. [2, 21] [%] | Leakage (as %) after 1 week at 35° C. [2, 22] [%] | SMILES
3 | 2 | 105 | 102 | 27 | 9 | 83 | 90 | 95 | 2.3 | 1.1 | 1.2 | 8 | 8 | 18 | 8 | 9 | 9 | 70 | 76 | 17 | CCC(C)(O)CCCC(C)C (stereo not drawn) [Tetrahydro linalool]
4 | 3 | 107 | 105 | 26 | 10 | 86 | 88 | 95 | 2.4 | 1.2 | 1.2 | 8 | 7 | 17 | 7 | – | – | – | – | – | CCC(C)CCCC(C)(C)O (stereo not drawn) [Tetrahydro myrcenol]
5 | 1 | 107 | 104 | 26 | 4 | 20 | 89 | 94 | 1.2 | 0.8 | 1.2 | 5 | 7 | 17 | 7 | 6 | 8 | 67 | 72 | 13 | CC(=O)OC1CC2CC1C1CC=CC21 (stereo not drawn) [Verdyl acetate]
